Key:
U266 = assay: Cell growth inhibition assay (resazurin, 48 h); assay type: cell-based; settings: Homo sapiens, U-266, 48 h, U266, 48 h
PC-3 cells = assay: PARP and Pro-Caspase 3 cleavage in PC-3 cells (western blot); assay type: cell-based, human; settings: 100 nM; 0, 8 or 24 hours
Method: Total protein lysates were made and 20 μg of the lysates were then resolved under reducing/denaturing conditions and blotted onto nitrocellulose. The blots were then probed with anti-PARP or anti-caspase 3 antibodies followed by stripping and reprobing with an anti-actin antibody.

[1] = Maximum tolerated dose determination in female BALB/c mice; assay type: in vivo, mouse
Excerpt: In vivo studies were designed to determine the MTD of Salinosporamide A when administered intravenously to female BALB/c mice.
Animals were observed daily for clinical signs and were weighed individually twice weekly until the end of the experiment (maximum of 14 days after the last day of dosing).

Caspase-3 = Caspase-3 activity assay in Jurkat cells; assay type: cell-based, human; settings: EC50 concentration, 19 hours
Method: Jurkat cells were plated at 2×10^6 cells/3 mL per well in a 6-well plate and incubated at 37° C., 5% (v/v) CO2 and 95% (v/v) humidity. […] Bhalla, et al., Blood 82:3133 (1993). […] Cells treated with 0.25% DMSO served as the negative control. The cells were collected by centrifugation and the media removed. Cell pellets were processed for the Caspase-3 activity assay as described in the manufacturer's protocol (EnzChek Caspase-3 Assay Kit from Molecular Probes (E-13183; see Appendix G, which form a part of this application and is also available at hypertext transfer protocol on the worldwide web at “probes.com.media/pis/mp13183.pdf.”. In brief, cell pellets were lysed on ice, mixed with the EnzChek Caspase-3 components in a 96-well plate, and then incubated in the dark for 30 minutes prior to reading fluorescence of cleaved benzyloxycarbonyl-DEVD-[…] using a Packard Fusion with λex=485 nm and λem=530 nm filters. Protein concentrations for lysates were determined using the BCA Protein Assay Kit (Pierce) and these values were used for normalization.

NF-κB/Luc 293 cells = assay: Viability of NF-κB/Luc 293 cells (resazurin, 24 hr); assay type: cell-based, human; settings: ~7 nM
PANC-1 = assay: Cell growth inhibition assay (resazurin, 48 h); assay type: cell-based; settings: Homo sapiens, PANC-1, 48 h
Jurkat cells = assay: Cytotoxicity against Jurkat cells; assay type: cell-based, human
OVCAR-3 = assay: Cell growth inhibition assay (resazurin, 48 h); assay type: cell-based, human; settings: OVCAR-3, 48 h
[2] = target: T1, proteasome chymotrypsin-like activity in packed whole blood lysate (Mus musculus, UniProt O55234); assay: Proteasome activity in packed whole blood lysate (PWBL) of treated mice; assay type: in vivo; settings: 90 minutes
T1 construct: The supernatant (Packed Whole Blood Lysate, PWBL) was transferred to a fresh tube; from tissue; host or cells: packed whole blood cells of Swiss-Webster mice (lysate)
Method: In brief, frozen whole blood samples were thawed on ice for one hour, and resuspended in 700 μL of ice cold 5 mM EDTA, pH 8.0 in order to lyse the cells by hypotonic shock. This represents approximately 2-3 times the volume of the packed whole blood cells. Lysis was allowed to proceed for one hour, and the cellular debris was removed by centrifugation at 14,000×g for 10 minutes. The supernatant (Packed Whole Blood Lysate, PWBL) was transferred to a fresh tube, and the pellet discarded. Protein concentration of the PWBL was determined by BCA assay (Pierce) using BSA as a standard.
Proteasome activity was determined by measuring the hydrolysis of a fluorogenic substrate specific for the chymotrypsin-like activity of proteasomes (suc-LLVY-AMC, Bachem Cat. I-1395). […] Hydrolysis of the substrate results in the release of free AMC, which was measured fluorometrically by using λex=390 nm and λem=460 nm. The rate of hydrolysis in this system is linear for at least one hour. The hydrolysis rate of each sample is then normalized to relative fluorescent units per milligram of protein (RFU/mg).
The vehicle control consisted of 2% DMSO in 10% solutol. […] Packed whole blood cells were collected by centrifugation, washed with PBS, and re-centrifuged. All samples were stored at −80° C. prior to the evaluation of the proteasome activity. […]

[3] = target: T2, 20S proteasome chymotrypsin-like activity in PC-3 cells (Homo sapiens, UniProt P28074); assay: Chymotrypsin-like activity of 20S proteasomes in treated PC-3 cells; assay type: cell-based; settings: 5 nM, 1 hr
T2 construct: PC-3 (ATCC, CRL-1435), the human prostate cancer cell line; host or cells: PC-3
T2 sequence (P28074 60-263): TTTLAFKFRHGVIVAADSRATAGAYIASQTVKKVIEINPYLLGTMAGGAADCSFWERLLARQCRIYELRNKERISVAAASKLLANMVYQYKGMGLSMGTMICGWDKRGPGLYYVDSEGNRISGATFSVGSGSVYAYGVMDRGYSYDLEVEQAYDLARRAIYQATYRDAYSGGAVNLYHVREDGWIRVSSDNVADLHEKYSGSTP
Method: PC-3 (ATCC, CRL-1435), the human prostate cancer cell line, was cultured in F12K medium supplemented with 2 mM L-glutamine, 100 units/ml penicillin, 100 μg/ml streptomycin and 10% heat inactivated fetal bovine serum at 37° C., 5% CO2 and 95% humidified air. […] DMSO was used as the vehicle control at a final concentration of 0.1%. Following 1 hr incubation of PC-3 cells with the compounds, the cells were washed 3× with ice-cold 1× Dulbecco's Phosphate-Buffered Saline (DPBS, Mediatech, Herndon, Va.). […] Cell debris was pelleted by centrifugation at 14,000 rpm for 10 min, 4° C. and supernatants (=cell lysates) were transferred to a new tube. Protein concentration was determined by the BCA protein assay kit (Pierce Biotechnology, Rockford, Ill.). […] The released coumarin (AMC) was measured fluorometrically by using λex=390 nm and λem=460 nm. The assay was performed in a microtiter plate (Corning 3904) and followed kinetically with measurements every five minutes for 2 hr. The total amount of protein used for each assay was 20 μg. The final concentration of Suc-LLVY-AMC and DMSO was 20 μM and 0.2%, respectively. Results are presented as the percent inhibition of the 20S proteasome chymotrypsin-like activity relative to the DMSO control.

DU 145 = assay: Cell growth inhibition assay (resazurin, 48 h); assay type: cell-based, human

T1 sequence (O55234 60-264): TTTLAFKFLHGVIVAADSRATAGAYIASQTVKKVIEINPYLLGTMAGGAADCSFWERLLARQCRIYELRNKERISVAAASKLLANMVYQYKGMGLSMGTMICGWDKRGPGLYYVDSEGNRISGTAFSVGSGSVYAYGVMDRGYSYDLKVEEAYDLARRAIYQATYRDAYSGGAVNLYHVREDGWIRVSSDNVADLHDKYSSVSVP

C[C@@]12OC(=O)[C@]1([C@@H](O)[C@@H]1C=CCCC1)NC(=O)[C@@H]2CCCl [Formula II-16, Salinosporamide A]
EC50 (U266): 4.7 ± 0.7 nM | cleavage of PARP (PC-3 cells): cleavage of PARP is noticeable at 24 hours | well tolerated dose, daily for five consecutive days ([1]; i.v. qdx5, female BALB/c mice): up to 0.1 mg/kg | tolerated single intravenous dose ([1]; qdx1, female BALB/c mice): up to 0.25 mg/kg | Caspase-3 activity (Caspase-3): activation of Caspase-3 | cell viability at the NF-κB EC50 concentration (NF-κB/Luc 293 cells): did not affect cell viability | EC50 (PANC-1): 60 nM | % max cell kill (Jurkat cells): 97% | EC50 (Jurkat cells; Homo sapiens): 10 nM | EC50 (OVCAR-3; Homo sapiens): 69 nM | EC50 (OVCAR-3): 49 ± 31 nM | proteasomal activity in PWBL after oral administration [2]: active upon oral administration | % inhibition of the chymotrypsin-like activity of 20S proteasomes in PC-3 cell lysates [3]: 69% | % cytotoxicity (DU 145; DU 145): 75 ± 4% | EC50 (DU 145; Homo sapiens, DU 145, 48 h): 37 ± 10 nM

Source: patent publication US7579371B2, “Methods of using [3.2.0] heterocyclic compounds and analogs thereof” (Nereus Pharmaceuticals, Inc., priority 2004, dated 2009)
